Read-outs that look alike come from different tables or passages of the source.
Columns and labels:
[1] = system: nuclear p27 in LNCaP-S14 cells; assay type: cell-based, human
[2] = MTT cytotoxicity assay, IMR90; assay type: cell-based; details: human, IMR90, 0.01 - 40 μM, 72 h
Description: (§1) LNCaP-S14 (10,000 cells), PC3, DU145 or IMR90 cells (5000 cells) were seeded in 96-well plates and treated with increasing concentrations of the respective SMIPs for 72 h. Cell viability was assessed using the MTT cell proliferation assay (ATCC®, Middlesex, UK) according to the manufacturer's protocol. IC50 was calculated using the BioDataFit 1.02 software http://www.changbioscience.com/stat/ec50.html.

[3] = system: LNCaP-S14 cells; experiment: MTT cytotoxicity assay, LNCaP-S14; details: Homo sapiens, 72 h, read-out: IC50 (MTT cytotoxicity)
Description: as §1

[4] = primary screening, nuclear p27 in LNCaP-S14 cells
[5] = primary screening, S = strong, M = medium, W = weak by Z score

## CCCCOc1ccc(C(=O)CCN2CCCCC2)cc1.Cl [1568F10]
[1]; [4]
  Z score (aver): 2.33
[1]; [5]
  Clasf: W (weak (Z score 2-3)

## Clc1ccccc1C(c1ccccc1)(c1ccccc1)n1ccnc1 [1568F16]
[1]
  Clasf: W (key: S: strong (Z score > 5); M: medium (Z score 3-5); W: weak (Z score 2-3)
  Z score (aver): 2.26

## CN(C)CCCN1c2ccccc2CCc2ccc(Cl)cc21.Cl [1568F20]
[1]; [4]
  Z score (aver): 2.49
[1]; [5]
  Clasf: W (weak (Z score 2-3)

## O=C(Nc1ccc([N+](=O)[O-])cc1Cl)c1cc(Cl)ccc1O [1568G21]
[1]; [4]
  Z score (aver): 3.77
[1]; [5]
  Clasf: M (medium (Z score 3-5))

## CCC1(O)C(=O)OCc2c1cc1n(c2=O)Cc2cc3ccccc3nc2-1 (centres unmarked) [1568H21]
[1]; [4]
  Z score (aver): 4.82
[1]; [5]
  Clasf: M (medium (Z score 3-5))

## OCCN1CCN(CCCN2c3ccccc3Sc3ccc(Cl)cc32)CC1 [1568I12]
[1]; [4]
  Z score (aver): 3.13
[1]; [5]
  Clasf: M (medium (Z score 3-5))

## Cl.OC(c1cc(C(F)(F)F)nc2c(C(F)(F)F)cccc12)C1CCCCN1 (centres unmarked) [1568I14]
[1]; [4]
  Z score (aver): 8.87
[1]; [5]
  Clasf: S (strong (Z score > 5))

## CN1CCCN(C(c2ccccc2)c2ccc(Cl)cc2)CC1.Cl (centres unmarked) [1568J08]
[1]; [4]
  Z score (aver): 2.49
[1]; [5]
  Clasf: W (weak (Z score 2-3)

## C1CCC(C(CC2CCCCN2)C2CCCCC2)CC1.O=C(O)C=CC(=O)O (centres unmarked) [1568J14]
[1]; [4]
  Z score (aver): 7.22
[1]; [5]
  Clasf: S (strong (Z score > 5))

## O=C(CCCN1CCC2(CC1)C(=O)NCN2c1ccccc1)c1ccc(F)cc1 [1568J18]
[1]; [4]
  Z score (aver): 4.37
[1]; [5]
  Clasf: M (medium (Z score 3-5))

## COC(=O)Nc1nc2cc(Sc3ccccc3)ccc2[nH]1 [1568J21]
[1]; [4]
  Z score (aver): 3.73
[1]; [5]
  Clasf: M (medium (Z score 3-5))

## COc1ccc(CCN2CCC(Nc3nc4ccccc4n3Cc3ccc(F)cc3)CC2)cc1 [1568K14]
[1]
  Clasf: S (key: S: strong (Z score > 5); M: medium (Z score 3-5); W: weak (Z score 2-3)
  Z score (aver): 8.76

## CC#CC1(O)CCC2C3CCC4=CC(=O)CCC4=C3C(c3ccc(N(C)C)cc3)CC21C (centres unmarked) [1568L20]
[1]; [4]
  Z score (aver): 3.22
[1]; [5]
  Clasf: M (medium (Z score 3-5))

## N=C(NCCCCCCNC(=N)NC(=N)Nc1ccc(Cl)cc1)NC(=N)Nc1ccc(Cl)cc1 [1568M08]
[1]; [4]
  Z score (aver): 6.26
[1]; [5]
  Clasf: S (strong (Z score > 5))

## CCC(=C(c1ccccc1)c1ccc(OCCN(C)C)cc1)c1ccccc1.O=C(O)CC(O)(CC(=O)O)C(=O)O [1568M14]
[1]; [4]
  Z score (aver): 2.56
[1]; [5]
  Clasf: W (weak (Z score 2-3)

## Clc1ccc(COC(Cn2ccnc2)c2ccc(Cl)cc2Cl)c(Cl)c1 (centres unmarked) [1568M15]
[1]
  Clasf: W (key: S: strong (Z score > 5); M: medium (Z score 3-5); W: weak (Z score 2-3)
  Z score (aver): 2.54

## Clc1ccc(COC(Cn2ccnc2)c2ccc(Cl)cc2Cl)cc1.O=[N+]([O-])O (centres unmarked) [1568N10]
[1]; [4]
  Z score (aver): 2.46
[1]; [5]
  Clasf: W (weak (Z score 2-3)

## O=c1[nH]c2ccccc2n1C1CCN(CCCC(c2ccc(F)cc2)c2ccc(F)cc2)CC1 [1568N18]
[1]; [4]
  Z score (aver): 2.26
[1]; [5]
  Clasf: W (weak (Z score 2-3)

## CSc1ccc2c(c1)N(CCC1CCCCN1C)c1ccccc1S2.Cl (centres unmarked) [1568O17]
[1]
  Clasf: W (key: S: strong (Z score > 5); M: medium (Z score 3-5); W: weak (Z score 2-3)
  Z score (aver): 2.51

## CCN(CC)CCCC(C)Nc1c2ccc(Cl)cc2nc2ccc(OC)cc12 (centres unmarked) [1568P18]
[1]; [4]
  Z score (aver): 6.13
[1]; [5]
  Clasf: S (strong (Z score > 5))

## CCCCCCC[N+](CC)(CC)CCCCc1ccc(Cl)cc1.Cc1ccc(S(=O)(=O)[O-])cc1 [1568P20]
[1]; [4]
  Z score (aver): 9.16
[1]; [5]
  Clasf: S (strong (Z score > 5))

## Cl.OCCN1CCN(CCCN2c3ccccc3Sc3ccc(C(F)(F)F)cc32)CC1 [1568P22]
[1]; [4]
  Z score (aver): 2.76
[1]; [5]
  Clasf: W (weak (Z score 2-3)

## CN(C)CCC=C1c2ccccc2Sc2ccc(Cl)cc21.Cl [1569E17]
[1]; [4]
  Z score (aver): 3.86
[1]; [5]
  Clasf: M (medium (Z score 3-5))

## COc1ccc(Cc2nccc3cc(OC)c(OC)cc23)cc1OC.Cl [1569F08]
[1]; [4]
  Z score (aver): 2.60
[1]; [5]
  Clasf: W (weak (Z score 2-3)

## C=C(NC(=O)C(=C)NC(=O)c1csc(C2=NC3c4csc(n4)C4NC(=O)c5csc(n5)C(C(C)(O)C(C)O)NC(=O)C5CSC(=N5)C(=CC)NC(=O)C(C(C)O)NC(=O)c5csc(n5)C3(CC2)NC(=O)C(C)NC(=O)C(=C)NC(=O)C(C)NC(=O)C(C(C)CC)NC2C=Cc3c(C(C)O)cc(nc3C2O)C(=O)OC4C)n1)C(N)=O (centres unmarked) [1569J05]
[1]; [4]
  Z score (aver): 5.60
[1]; [5]
  Clasf: S (strong (Z score > 5))

## CSc1ccc2c(c1)C(N1CCN(C)CC1)Cc1ccccc1S2.O=C(O)C=CC(=O)O (centres unmarked) [1569K11]
[1]; [4]
  Z score (aver): 4.55
[1]; [5]
  Clasf: M (medium (Z score 3-5))

## C=C1c2c(Cl)ccc(O)c2C(=O)C2=C(O)C3(O)C(=O)C(C(N)=O)=C(O)C(N(C)C)C3C(O)C12.O=C(O)c1cc(S(=O)(=O)O)ccc1O (centres unmarked) [1569K14]
[1]; [4]
  Z score (aver): 2.51
[1]; [5]
  Clasf: W (weak (Z score 2-3)

## CC1=CC(=O)c2ccccc2C1=O [1569K20]
[1]; [4]
  Z score (aver): 6.94
[1]; [5]
  Clasf: S (strong (Z score > 5))

## Cc1c2ccncc2c(C)c2c1[nH]c1ccccc12 [1569L10]
[1]; [4]
  Z score (aver): 2.59
[1]; [5]
  Clasf: W (weak (Z score 2-3)

## Cl.Fc1ccc(C(OCCN2CCN(CCCc3ccccc3)CC2)c2ccc(F)cc2)cc1 [1569M13]
[1]; [4]
  Z score (aver): 5.81
[1]; [5]
  Clasf: S (strong (Z score > 5))

## Cc1cc(N)c2ccccc2[n+]1CCCCCCCCCC[n+]1c(C)cc(N)c2ccccc21.Cl [1569M17]
[1]; [4]
  Z score (aver): 9.20
[1]; [5]
  Clasf: S (strong (Z score > 5))

## C=C1C(=O)OC2C1CCC(C)=CCCC1(C)OC21 (centres unmarked) [1569N21]
[1]; [4]
  Z score (aver): 8.12
[1]; [5]
  Clasf: S (strong (Z score > 5))

## COc1cc(C2c3cc4c(cc3C(OC3OC5COC(C)OC5C(O)C3O)C3COC(=O)C23)OCO4)cc(OC)c1O (centres unmarked) [1569O13]
[1]; [4]
  Z score (aver): 6.74
[1]; [5]
  Clasf: S (strong (Z score > 5))

## COc1ccc(CC(N)C(=O)NC2C(CO)OC(n3cnc4c(N(C)C)ncnc43)C2O)cc1.Cl (centres unmarked) [1569O22]
[1]; [4]
  Z score (aver): 7.86
[1]; [5]
  Clasf: S (strong (Z score > 5))

## CC1OC(OC2CCC3(C=O)C4CCC5(C)C(C6=CC(=O)OC6)CCC5(O)C4CCC3(O)C2)CC(O)C1O (centres unmarked) [1570A13]
[1]; [4]
  Z score (aver): 2.74
[1]; [5]
  Clasf: W (weak (Z score 2-3)

## CC12CCC(O)CC1CCC1C2CC(O)C2(C)C(C3=CC(=O)OC3)CCC12O (centres unmarked) [1570B08]
[1]; [4]
  Z score (aver): 2.80
[1]; [5]
  Clasf: W (weak (Z score 2-3)

## CN(C)CCN(Cc1ccc(Cl)cc1)c1ccccn1.Cl [1570B15]
[1]; [4]
  Z score (aver): 8.42
[1]; [5]
  Clasf: S (strong (Z score > 5))

## CCC1(C2OC(C3OC(O)(CO)C(C)CC3C)CC2C)CCC(C2(C)CCC3(CC(O)C(C)C(C(C)C(OC)C(C)C(=O)[O-])O3)O2)O1.[Na+] (centres unmarked) [1570E18]
[1]; [4]
  Z score (aver): 9.26
[1]; [5]
  Clasf: S (strong (Z score > 5))

## CCC(C(=O)C(C)C(O)C(C)CCc1ccc(C)c(O)c1C(=O)[O-])C1OC(CC)(C2CCC(O)(CC)C(C)O2)CC1C.[Na+] (centres unmarked) [1570F17]
[1]; [4]
  Z score (aver): 8.04
[1]; [5]
  Clasf: S (strong (Z score > 5))

## Cc1cc2c(C(C)C)c(O)c(O)c(C=O)c2c(O)c1-c1c(C)cc2c(C(C)C)c(O)c(O)c(C=O)c2c1O [1570G15]
[1]; [4]
  Z score (aver): 3.54
[1]; [5]
  Clasf: M (medium (Z score 3-5))

## NCC1OC(OC2C(N)CC(N)C(O)C2OC2OC(CO)C(O)C2O)C(N)C(O)C1O.O=S(=O)(O)O (centres unmarked) [1570G18]
[1]; [4]
  Z score (aver): 6.58
[1]; [5]
  Clasf: S (strong (Z score > 5))

## O=C1C=C2C=CC3CC2(O1)C1CCCCN31 (centres unmarked) [1570J03]
[1]; [4]
  Z score (aver): 3.84
[1]; [5]
  Clasf: M (medium (Z score 3-5))

## CCCCCCCCCCCCCCCC[N+](C)(C)CCN(Cc1ccc(OC)cc1)c1ncccn1 [1570J12]
[1]; [4]
  Z score (aver): 8.18
[1]; [5]
  Clasf: S (strong (Z score > 5))

## CCCC(C(=O)OCCN(CC)CC)(c1ccccc1)c1ccccc1.Cl [1570K18]
[1]; [4]
  Z score (aver): 3.31
[1]; [5]
  Clasf: M (medium (Z score 3-5))

## Nc1ncn(C2OC(CO)C(O)C2O)c(=O)n1 (centres unmarked) [1570N13]
[1]; [4]
  Z score (aver): 7.46
[1]; [5]
  Clasf: S (strong (Z score > 5))

## O=c1cc(-c2ccc(O)c(O)c2)oc2cc(O)cc(O)c12 [1570N21]
[1]; [4]
  Z score (aver): 3.48
[1]; [5]
  Clasf: M (medium (Z score 3-5))

## CCCCc1ccc2nc(NC(=O)C3=NN(C)C(=O)CC3)sc2c1 [1715B12]
[1]; [4]
  Z score (aver): 2.67
[1]; [5]
  Clasf: W (weak (Z score 2-3)

## COc1cc(C#N)ccc1OC(=O)Cc1coc2ccc3ccccc3c12 [1715D21]
[1]; [4]
  Z score (aver): 2.52
[1]; [5]
  Clasf: W (weak (Z score 2-3)

## C/C=C(/C)C(=O)O[C@H]1C(C)=C2[C@H]([C@@H]1OC(=O)CCCCCCC)[C@@](C)(OC(C)=O)C[C@H](OC(=O)CCC)[C@@]1(O)[C@H]2OC(=O)[C@@]1(C)O [Thapsigargin, reference compound]
[2]
  IC50: 31 nM
[1]; LNCaP-S14, ~5 to 35 μM, 18 h
  hit in primary screen (increased percentage of p27 positive cells): identified
[3]
  IC50: 7.8 nM

## COC[C@H]1OC(=O)c2coc3c2[C@@]1(C)C1=C(C3=O)[C@@H]2CCC(=O)[C@@]2(C)C[C@H]1OC(C)=O [Wortmannin, reference compound]
[1]; LNCaP-S14, ~5 to 35 μM, 18 h
  hit in primary screen (increased percentage of p27 positive cells): scored positive

## CC[C@@]1(O)C(=O)OCc2c1cc1n(c2=O)Cc2cc3ccccc3nc2-1 [camptothecin, reference compound]
[1]; LNCaP-S14, ~5 to 35 μM, 18 h
  hit in primary screen (increased percentage of p27 positive cells): identified

## COc1cc([C@@H]2c3cc4c(cc3[C@@H](O[C@@H]3O[C@@H]5CO[C@@H](C)O[C@H]5[C@H](O)[C@H]3O)[C@H]3COC(=O)[C@H]23)OCO4)cc(OC)c1O [etoposide, reference compound]
[1]; LNCaP-S14, ~5 to 35 μM, 18 h
  hit in primary screen (increased percentage of p27 positive cells): identified

## CO[C@@]12[C@H](COC(N)=O)C3=C(C(=O)C(C)=C(N)C3=O)N1C[C@@H]1N[C@@H]12 [mitomycin C, reference compound]
[1]
  hit in primary screen (increased percentage of p27 positive cells): identified

## CC[C@H](CO)Nc1nc(NCc2ccccc2)c2ncn(C(C)C)c2n1 [roscovitine, reference compound]
[1]
  percentage of p27 positive cells: up to 50%

— PMC3025922 (BMC Biology, 2010)
